This is an account of results in patent US12441718B2, “Selective angiotensin II compounds” (VICORE PHARMA AB, priority 2021, dated 2025).

The term pKi denotes the negative decadic logarithm of the Ki, by convention in mol/L. One may read the pIC50 as the negative decadic logarithm of the IC50, by convention in mol/L.

Structures are written as SMILES. pIC50, pKi: −log10 of the molar value. Several values for one entry are separate records, joined by “and”; a condition that tells them apart may be missing. Equal entries are not always repeated. Where two headings read alike, the source gives them in different places.

A short description of data set [1]: Metabolic stability in pooled human liver microsomes. Format: in vitro ADME. To be noted: pooled human liver microsomes 0.5 mg/mL, 1 μM test compound, 37° C., * rows = mean of two runs; for half-life at 1 μM: human, pooled human liver microsomes. The method, boiled down: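 Pooled human liver microsomes (0.5 mg/mL in PBS) preincubated ±1 mM NADPH at 37° C; test compound added at 10 min to 1 μM final. Samples at 0, 5, 15 and 60 min quenched in acetonitrile, parent quantified by LC-MS/MS against a standard curve (terfenadine internal standard). Initial metabolic rate calculated with and without NADPH.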

In data set [2] the target is T1, human recombinant AT2 receptor (Homo sapiens, UniProt P50052).
T1 construct: purchased Eurofins ITEM26 (protocol number)
T1 sequence (P50052 1-363): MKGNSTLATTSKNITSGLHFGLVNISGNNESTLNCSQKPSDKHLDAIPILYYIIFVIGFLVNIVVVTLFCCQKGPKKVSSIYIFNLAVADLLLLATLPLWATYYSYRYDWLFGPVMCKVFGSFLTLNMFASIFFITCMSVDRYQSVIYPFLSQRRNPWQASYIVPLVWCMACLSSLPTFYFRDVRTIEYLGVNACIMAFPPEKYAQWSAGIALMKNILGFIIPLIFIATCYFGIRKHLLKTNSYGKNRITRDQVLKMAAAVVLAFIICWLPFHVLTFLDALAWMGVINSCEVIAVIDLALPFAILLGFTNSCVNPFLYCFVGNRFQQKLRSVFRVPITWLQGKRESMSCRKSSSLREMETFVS
Description: Binding to AT2 receptor, radiometric scintillation assay (Eurofins ITEM26). To be noted: ligand 125I CGP 42112A, * rows = mean of runs; for pKi: seven-point dose-response curve; for pIC50: test compounds at 1, 10, 100 and 1000 nM, read-out: AT2 GraFit IC50.

Data set [3] has as its target T2, human recombinant AT1 receptor (Homo sapiens, UniProt P30556).
T2 construct: purchased Eurofins ITEM24 (protocol number)
T2 sequence (P30556 1-359): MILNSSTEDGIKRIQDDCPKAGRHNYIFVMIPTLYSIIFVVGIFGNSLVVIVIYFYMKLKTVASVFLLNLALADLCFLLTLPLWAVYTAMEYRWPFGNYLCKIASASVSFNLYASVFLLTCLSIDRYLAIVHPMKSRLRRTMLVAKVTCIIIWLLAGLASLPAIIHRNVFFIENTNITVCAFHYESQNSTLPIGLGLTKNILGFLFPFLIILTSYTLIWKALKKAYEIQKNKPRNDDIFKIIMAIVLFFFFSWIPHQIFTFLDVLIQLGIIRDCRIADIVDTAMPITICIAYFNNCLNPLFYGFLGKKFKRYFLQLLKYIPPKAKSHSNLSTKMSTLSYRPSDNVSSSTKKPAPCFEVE
Description: Binding to AT1 receptor, radiometric scintillation assay (Eurofins ITEM24). The following applies: test compounds at 1 and 10 μM, ligand 125I(sar1,Ile8)-AT-II; * rows = mean of runs.

Data set [4] deals with T3, CYP1A2 (Homo sapiens, UniProt P05177).
T3 construct: isoform-specific substrates incubated with human liver microsomes; tissue Eurofins ITEMG232 (protocol number); host or cells: human liver microsomes
T3 sequence (P05177 whole entry, canonical isoform): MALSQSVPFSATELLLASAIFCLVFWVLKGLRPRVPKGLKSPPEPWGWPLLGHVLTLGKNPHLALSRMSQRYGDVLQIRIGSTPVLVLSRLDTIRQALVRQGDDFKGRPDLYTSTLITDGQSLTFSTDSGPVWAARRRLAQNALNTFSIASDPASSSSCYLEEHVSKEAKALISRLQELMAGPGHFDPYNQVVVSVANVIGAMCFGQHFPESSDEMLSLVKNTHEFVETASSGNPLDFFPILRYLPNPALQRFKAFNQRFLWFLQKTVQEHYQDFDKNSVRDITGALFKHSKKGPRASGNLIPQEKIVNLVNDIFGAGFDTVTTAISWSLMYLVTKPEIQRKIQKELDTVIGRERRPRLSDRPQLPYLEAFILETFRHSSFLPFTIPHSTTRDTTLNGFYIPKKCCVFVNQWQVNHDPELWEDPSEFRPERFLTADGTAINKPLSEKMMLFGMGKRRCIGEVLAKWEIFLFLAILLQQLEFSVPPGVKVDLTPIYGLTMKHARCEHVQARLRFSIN
Description: in vitro. Format: in vitro ADME. The following applies: human, microsomes, human liver microsomes, substrate phenacetin, read-out: CYP1A2 Inh %.
Description: The following substrates were used; CYP1A phenacetin, CYP2B36 bupropion, CYP2C8 paclitaxel and amodiaquine, CYP2C9 diclofenac, CYP2C19 omeprazole, CYP2D6 dextromethorphan, CYP3A midazolam and testosterone.
At the end of the incubation, the formation of metabolite was monitored by HPLC-MS/MS as the peak area response.

Data set [5] deals with T4, CYP2B6 (Homo sapiens, UniProt P20813).
T4 construct: isoform-specific substrates incubated with human liver microsomes; tissue Eurofins ITEMG232 (protocol number); host or cells: human liver microsomes
T4 sequence (P20813 1-491): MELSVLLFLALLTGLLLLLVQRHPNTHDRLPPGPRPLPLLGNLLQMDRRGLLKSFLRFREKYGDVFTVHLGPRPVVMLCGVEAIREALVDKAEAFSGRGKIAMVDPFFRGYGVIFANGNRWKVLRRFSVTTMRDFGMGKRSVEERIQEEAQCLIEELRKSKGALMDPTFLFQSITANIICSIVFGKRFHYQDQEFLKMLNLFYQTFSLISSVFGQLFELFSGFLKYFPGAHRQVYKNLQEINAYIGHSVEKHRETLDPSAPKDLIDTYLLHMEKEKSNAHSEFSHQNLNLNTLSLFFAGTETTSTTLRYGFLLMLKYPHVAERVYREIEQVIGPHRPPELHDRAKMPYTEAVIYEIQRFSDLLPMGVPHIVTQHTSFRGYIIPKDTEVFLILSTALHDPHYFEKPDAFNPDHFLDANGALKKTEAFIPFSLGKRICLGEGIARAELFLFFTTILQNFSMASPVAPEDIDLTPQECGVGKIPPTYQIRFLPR
Description: CYP inhibition in human liver microsomes (Eurofins ITEMG232). Format: in vitro ADME. To be noted: probe bupropion, substrate bupropion, read-out: CYP2B6 Inh %.

The target of data set [6] is T5, CYP2C19 (Homo sapiens, UniProt P33261).
T5 construct: isoform-specific substrates incubated with human liver microsomes; tissue Eurofins ITEMG232 (protocol number); host or cells: human liver microsomes
T5 sequence (P33261 whole entry, canonical isoform): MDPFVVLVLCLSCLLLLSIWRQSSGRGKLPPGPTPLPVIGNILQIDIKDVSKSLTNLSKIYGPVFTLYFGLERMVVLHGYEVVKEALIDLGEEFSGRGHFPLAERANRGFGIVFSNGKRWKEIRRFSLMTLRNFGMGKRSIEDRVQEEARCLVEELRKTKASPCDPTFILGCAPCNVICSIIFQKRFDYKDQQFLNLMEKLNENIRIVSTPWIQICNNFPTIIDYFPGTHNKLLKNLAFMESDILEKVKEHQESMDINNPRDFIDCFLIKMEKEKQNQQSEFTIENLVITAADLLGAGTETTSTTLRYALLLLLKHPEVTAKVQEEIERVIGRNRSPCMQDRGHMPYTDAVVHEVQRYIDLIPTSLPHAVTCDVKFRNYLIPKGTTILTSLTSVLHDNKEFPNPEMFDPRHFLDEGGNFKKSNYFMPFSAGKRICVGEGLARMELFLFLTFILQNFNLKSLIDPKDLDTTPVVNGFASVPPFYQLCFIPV
The data set is described as above. To be noted: human, probe omeprazole, substrate omeprazole, read-out: CYP2C19 Inh %. Format: in vitro ADME.

The target in data set [7] is T6, CYP2C8 (Homo sapiens, UniProt P10632).
T6 construct: isoform-specific substrates incubated with human liver microsomes; tissue Eurofins ITEMG232 (protocol number); host or cells: human liver microsomes
T6 sequence (P10632 1-490): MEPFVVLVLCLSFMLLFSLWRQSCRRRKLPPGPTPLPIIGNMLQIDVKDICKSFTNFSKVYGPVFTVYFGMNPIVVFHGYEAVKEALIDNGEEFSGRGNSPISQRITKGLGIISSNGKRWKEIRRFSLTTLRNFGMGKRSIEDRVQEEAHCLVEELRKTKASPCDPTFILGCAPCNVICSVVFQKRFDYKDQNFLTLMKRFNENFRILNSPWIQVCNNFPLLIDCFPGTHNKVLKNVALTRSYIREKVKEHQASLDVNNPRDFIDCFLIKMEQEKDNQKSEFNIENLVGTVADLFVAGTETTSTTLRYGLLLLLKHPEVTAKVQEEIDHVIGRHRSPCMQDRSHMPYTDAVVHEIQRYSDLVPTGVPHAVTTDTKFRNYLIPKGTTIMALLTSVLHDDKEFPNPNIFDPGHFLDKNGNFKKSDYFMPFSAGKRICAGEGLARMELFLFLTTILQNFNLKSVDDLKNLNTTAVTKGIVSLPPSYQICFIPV
The description is as above. To be noted: human, probe paclitaxel and amodiaquine, substrate paclitaxel and amodiaquine, read-out: CYP2C8 Inh %. Format: in vitro ADME.

Data set [8] concerns the target T7, CYP2D6 (Homo sapiens, UniProt P10635).
T7 construct: isoform-specific substrates incubated with human liver microsomes; tissue Eurofins ITEMG232 (protocol number); host or cells: human liver microsomes
The data set is described as above. Format: in vitro ADME. The following applies: probe dextromethorphan, substrate dextromethorphan, read-out: CYP2D6 Inh %.

Data set [9] concerns CYP3A4&5. Nature of the data set: in vitro. The following applies: human, human liver microsomes, probe testosterone. In general terms: Liver microsomes are vesicles of endoplasmic reticulum, rich in cytochrome P450 enzymes.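 Further: Read-out is the metabolite generated from the probe substrate, quantified as HPLC-MS/MS peak area once incubation ends.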
The target of data set [10] is CYP2C9 (Homo sapiens, UniProt P11712). Nature of the data set: CYP inhibition in human liver microsomes (Eurofins ITEMG232). Format: in vitro ADME. Also noted: isoform-specific substrates incubated with human liver microsomes; tissue Eurofins ITEMG232 (protocol number); host or cells: human liver microsomes. The following applies: human, probe diclofenac, substrate diclofenac, read-out: CYP2C9 Inh %.
CYP2C9, sequence (P11712 whole entry, canonical isoform): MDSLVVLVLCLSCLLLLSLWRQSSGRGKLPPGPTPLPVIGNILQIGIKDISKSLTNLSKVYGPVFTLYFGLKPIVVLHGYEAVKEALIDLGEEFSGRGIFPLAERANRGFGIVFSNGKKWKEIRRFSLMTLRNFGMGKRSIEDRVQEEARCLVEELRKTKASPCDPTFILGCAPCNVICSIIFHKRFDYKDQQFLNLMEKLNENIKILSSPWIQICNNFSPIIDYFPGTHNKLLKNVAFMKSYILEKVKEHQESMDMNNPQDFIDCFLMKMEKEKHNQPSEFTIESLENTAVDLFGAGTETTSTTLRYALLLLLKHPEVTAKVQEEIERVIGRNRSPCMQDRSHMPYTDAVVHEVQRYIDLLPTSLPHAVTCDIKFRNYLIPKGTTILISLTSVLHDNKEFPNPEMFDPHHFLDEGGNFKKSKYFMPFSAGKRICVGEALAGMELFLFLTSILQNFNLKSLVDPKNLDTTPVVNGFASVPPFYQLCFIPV

Data set [11] has as its target CYP3A4 (Homo sapiens, UniProt P08684). Nature of the data set: CYP inhibition in human liver microsomes (Eurofins ITEMG232), midazolam substrate. Also noted: isoform-specific substrates incubated with human liver microsomes; tissue Eurofins ITEMG232 (protocol number); host or cells: human liver microsomes. Format: in vitro ADME. The following applies: human, probe midazolam, read-out: CYP3A4 midazolam Inh %.

[12] abbreviates: with 1 mM NADPH, read-out: T1/2, + NaDPH.
The mark [13] stands for this setting: without NADPH, read-out: T1/2, no NaDPH.

T7 sequence (P10635 whole entry, canonical isoform): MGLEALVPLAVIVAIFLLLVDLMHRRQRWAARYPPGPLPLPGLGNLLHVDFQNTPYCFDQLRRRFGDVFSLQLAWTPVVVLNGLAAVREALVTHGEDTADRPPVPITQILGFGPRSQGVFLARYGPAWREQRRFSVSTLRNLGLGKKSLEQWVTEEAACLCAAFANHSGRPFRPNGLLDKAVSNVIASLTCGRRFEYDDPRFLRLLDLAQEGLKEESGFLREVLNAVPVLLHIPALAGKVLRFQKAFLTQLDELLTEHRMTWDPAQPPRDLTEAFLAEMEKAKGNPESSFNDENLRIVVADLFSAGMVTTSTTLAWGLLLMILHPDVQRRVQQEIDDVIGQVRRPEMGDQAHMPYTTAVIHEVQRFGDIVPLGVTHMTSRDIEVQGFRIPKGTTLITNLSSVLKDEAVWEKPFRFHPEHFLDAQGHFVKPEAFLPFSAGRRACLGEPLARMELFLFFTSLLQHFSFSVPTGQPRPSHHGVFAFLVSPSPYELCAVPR
CYP3A4, sequence (P08684 whole entry, canonical isoform): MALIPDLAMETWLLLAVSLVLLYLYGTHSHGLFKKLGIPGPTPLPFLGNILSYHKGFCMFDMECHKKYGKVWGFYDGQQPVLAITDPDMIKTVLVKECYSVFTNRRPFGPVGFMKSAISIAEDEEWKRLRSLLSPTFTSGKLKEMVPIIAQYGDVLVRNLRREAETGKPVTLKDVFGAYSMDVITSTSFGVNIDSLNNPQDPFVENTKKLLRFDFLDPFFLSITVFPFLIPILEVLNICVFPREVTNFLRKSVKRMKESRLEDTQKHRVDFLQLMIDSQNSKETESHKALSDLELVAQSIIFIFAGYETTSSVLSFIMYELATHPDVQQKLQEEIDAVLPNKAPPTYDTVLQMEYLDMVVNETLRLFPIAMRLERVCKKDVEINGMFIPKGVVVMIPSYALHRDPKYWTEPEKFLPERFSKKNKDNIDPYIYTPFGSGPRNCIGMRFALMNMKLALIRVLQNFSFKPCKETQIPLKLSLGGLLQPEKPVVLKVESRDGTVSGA

For the compound `Cc1nccn1Cc1ccc(-c2cc(CC(C)C)sc2S(=O)(=O)Nc2ncccn2)cc1` [Example 50, 5-Isobutyl-3-(4-((2-methyl-1H-imidazol-1-yl)methyl)phenyl)-N-(pyrimidin-2-yl)thiophene-2-sulfonamide], the half-life at 1 μM in data set [1] (setting [12]) and in [1] (setting [13]) was more than 1 h each time. For the same compound, in data set [2], the pKi was 9.14. Also, the values for the pIC50 in [2] and in [3] were 8.84 and 4.45, respectively.
Take `CC(C)Cc1ccc(S(=O)(=O)Nc2ccsn2)c(-c2ccc(Cn3ccnc3C(C)(C)C)c(F)c2)c1` [Example 32, 4′-((2-(tert-Butyl)-1H-imidazol-1-yl)methyl)-3′-fluoro-5-isobutyl-N-(isothiazol-3-yl)-[1,1′-biphenyl]-2-sulfonamide]: the half-life at 1 μM is 0.233 h in data set [1] (setting [12]) and more than 1 h in data set [1] (setting [13]). The “T1/2, + NaDPH” value was found to be 0.217 h in data set [1] (with 1 mM NADPH) and 0.225 h in data set [1] (with 1 mM NADPH, listed as Example 32*). In addition, in [2], the pKi is 9.04. The pIC50 in data set [2] was 8.74; in data set [3], 4.85 and 5.07 and 4.95.
On to `CCc1nccn1Cc1ccc(-c2cc(CC(C)C)sc2S(=O)(=O)Nc2ncccn2)cc1` [Example 51, 3-(4-((2-Ethyl-1H-imidazol-1-yl)methyl)phenyl)-5-isobutyl-N-(pyrimidin-2-yl)thiophene-2-sulfonamide], for which the half-life at 1 μM in data set [1] (setting [12]) and in [1] (setting [13]) was more than 1 h in each case. Also, the pKi in data set [2] is 9.19. The results for the pIC50 in [2] and in data set [3] were 8.89 and 4.86, respectively.
With `CC(C)Cc1ccc(S(=O)(=O)Nc2ncc(Br)cn2)c(-c2ccc(Cn3ccnc3C(C)(C)C)cc2)c1` [Example 1, N-(5-Bromopyrimidin-2-yl)-4′-((2-(tert-butyl)-1H-imidazol-1-yl)methyl)-5-isobutyl-[1,1′-biphenyl]-2-sulfonamide], the half-life at 1 μM in [1] (setting [12]) and in [1] (setting [13]) was more than 1 h throughout. The pKi in [2] is 8.67. Moreover, the pIC50 in data set [2] was 8.38. For the same compound, the inhibition at 10 µM worked out at 85.4% in data set [4]; 19.5% in data set [5]; 37.2% in [6]; 87.8% in [7]; 14.1% in data set [8]; 18.2% in data set [9]. The inhibition at 10 µM in data set [10] stood at 60.5%; in data set [11], 41.7%.
Turning to `COc1ncnc(OC)c1NS(=O)(=O)c1ccc(CC(C)C)cc1-c1ccc(Cn2ccnc2C(C)(C)C)c(F)c1` [Example 25, 4′-((2-(tert-Butyl)-1H-imidazol-1-yl)methyl)-N-(4,6-dimethoxypyrimidin-5-yl)-3′-fluoro-5-isobutyl-[1,1′-biphenyl]-2-sulfonamide], the half-life at 1 μM in data set [1] (setting [12]) is 0.1 h; in [1] (setting [13]), more than 1 h. In addition, the pKi in data set [2] was 7.12. The pIC50 in [2] was 6.82. Further, the inhibition at 10 µM in data set [4] was -5.4%; in data set [5] it was 19.4%; in [6], 65.8%; in data set [7], 40%; in data set [8], 11.9%; in data set [9], 57.3%. Further, the inhibition at 10 µM in [10] was 80.7%; in [11], 65.1%.
Regarding `Cc1nccn1Cc1ccc(-c2cc(CC(C)C)ccc2S(=O)(=O)Nc2ncccn2)cc1F` [Example 28, 3′-Fluoro-5-isobutyl-4′-((2-methyl-1H-imidazol-1-yl)methyl)-N-(pyrimidin-2-yl)-[1,1′-biphenyl]-2-sulfonamide], the half-life at 1 μM in [1] (setting [12]) and in [1] (setting [13]) was more than 1 h throughout. For the same compound, the pKi in data set [2] was 9.40. In addition, in data set [2], the pIC50 is 9.10. In addition, the inhibition at 10 µM in [4] was found to be 22.2%; in data set [5], 40.8%; in data set [6] it was 65%; in [7], 41.6%; in data set [8] it was 14.2%; in data set [9] it was 37.4%. Further, the inhibition at 10 µM in data set [10] was found to be 31.1%; in data set [11], 34.8%.
Turning to `COc1ccc(NS(=O)(=O)c2ccc(CC(C)C)cc2-c2ccc(Cn3ccnc3C(C)(C)C)c(F)c2)nn1` [Example 23, 4′-((2-(tert-Butyl)-1H-imidazol-1-yl)methyl)-3′-fluoro-5-isobutyl-N-(6-methoxypyridazin-3-yl)-[1,1′-biphenyl]-2-sulfonamide], the half-life at 1 μM in data set [1] (setting [12]) is 0.233 h; in data set [1] (setting [13]), more than 1 h. In data set [2], the pKi is 9.49. In addition, the pIC50 in data set [2] is 9.19. Further, the inhibition at 10 µM was 6.6% in data set [4]; 5.7% in [5]; 63.5% in [6]; 24.6% in data set [7]; 4.5% in [8]; 39.7% in data set [9]. In addition, the inhibition at 10 µM in data set [10] amounted to 42.9%; in [11], 55.8%.
